Laboratory results as given in US12090128B2, “Dispersible formulations of n-((r)-2,3-dihydroxypropoxy)-3,4-difluoro-2-(2-fluoro-4-iodo-phenylamino)-benazmide and uses thereof” (SpringWorks Therapeutics, Inc., priority 2021, dated 2024).

Test: Storage stability of crystalline Form IV by XRPD and/or DSC
Assay type: physicochemical
Description: FIG. 3A is an XRPD corresponding to essentially pure Form IV of N—((R)-2,3-dihydroxypropoxy)-3,4-difluoro-2-(2-fluoro-4-iodo-phenylamino)-benzamide after storage for 68 months after production at 25° C. and ≤65% relative humidity.
FIG. 3B is an XRPD corresponding to essentially pure Form IV of N—((R)-2,3-dihydroxypropoxy)-3,4-difluoro-2-(2-fluoro-4-iodo-phenylamino)-benzamide after storage for 140 months after production at 25° C. and ≤65% relative humidity.
In some aspects, the XRPD pattern is generated using a PANALYTICAL® X'Pert Pro diffractometer using Ni-filtered Cu Kα (45 kV/40 mA) radiation and a step size of 0.03° 2θ with a X′CELERATOR® Real Time Multi-Strip detector, configured (a) on the incidental beam side as follows: variable divergence slits (10 mm irradiated length), 0.04 rad Soller slits, fixed anti-scatter slit (0.50°), and 10 mm beam mask, and (b) on the diffracted beam side as follows: variable anti-scatter slit (10 mm observed length) and 0.04 rad Soller slit or a BRUKER® D8® ADVANCE™ system using Cu Kα (40 kV/40 mA) radiation and a step size of 0.03° 2θ with a LYNXEYE™ detector, configured (a) on the incidental beam side as follows: Goebel mirror, mirror exit slit (0.2 mm), 2.5° Soller slit, beam knife, and (b) on the diffracted beam side as follows: anti-scatter slit (8 mm) and 2.5° Soller slit; wherein samples are mounted flat on zero-background Si wafers. […]

XRPD pattern and/or DSC profile after storage (storage for 68 months at standard warehouse conditions (15° C.-25° C. and ≤65% relative humidity), FIG. 3A): substantially unchanged
XRPD pattern and/or DSC profile after storage (storage for ≥140 months at standard warehouse conditions (15° C.-25° C. and ≤65% relative humidity), FIG. 3B): substantially unchanged
SMILES: O=C(NOC[C@H](O)CO)c1ccc(F)c(F)c1Nc1ccc(I)cc1F [essentially pure Form IV, N—((R)-2,3-dihydroxypropoxy)-3,4-difluoro-2-(2-fluoro-4-iodo-phenylamino)-benzamide]
